Source: PubChem BioAssay (NCI)
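Growth conditions: 96-well plates. Treatment: test compound, 48 hours, 5 concentrations. Analysis: linear interpolation between bracketing concentrations; unreached endpoints set to highest concentration. At the GI50, growth is halved. The concentration for full growth arrest is given as TGI.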

Assays:
Assay in all cases: DTP human tumour cell line panel, 48 h
[1] = tested on: CAKI-1 renal
[2] = tested on: HCT-116 colon
[3] = tested on: K-562 leukemia
[4] = tested on: MDA-MB-231 breast
[5] = tested on: NCI-H460 lung
[6] = tested on: SF-295 CNS
[7] = tested on: SK-MEL-28 melanoma
[8] = tested on: SN12C renal
[9] = tested on: TK-10 renal
[10] = tested on: UACC-257 melanoma

| Compound | GI50 [1] [µM] | TGI [1] [µM] | GI50 [2] [µM] | TGI [2] [µM] | GI50 [3] [µM] | TGI [3] [µM] | GI50 [4] [µM] | TGI [4] [µM] | GI50 [5] [µM] | TGI [5] [µM] | GI50 [6] [µM] | TGI [6] [µM] | GI50 [7] [µM] | TGI [7] [µM] | GI50 [8] [µM] | TGI [8] [µM] | GI50 [9] [µM] | TGI [9] [µM] | GI50 [10] [µM] | TGI [10] [µM] |
| --- | --- | --- | --- | --- | --- | --- | --- | --- | --- | --- | --- | --- | --- | --- | --- | --- | --- | --- | --- | --- |
| CCCCCN(CCCCC)CC(O)c1cc(Cl)ccc1OC (centres undefined) | 2.81 | 16.6 | 2.49 | 12.6 | 3.81 | 20.3 | 5.38 | 20 | 4.7 | 18 | 1.38 | 12.6 | 1.63 | 3.51 | 10.5 | 28.8 | 10.9 | 24.1 | 4.98 | 18.7 |
| Cc1ncc(C(=O)Nc2ccc(CN3CCN(C)CC3)c(C(F)(F)F)c2)cc1C#Cc1ccc(N)nc1 | 0.104 | 0.533 | 0.213 | 1.64 | 0.00333 | 24.5 | 0.158 | 0.711 | 0.19 | 1.84 | 0.908 | 4.07 | 0.251 | 1.3 | 0.135 | 2.25 | 0.654 | 4.39 | 0.582 | 3.25 |
| CCN(Cc1cc(F)ccc1F)c1ccc(CO)c(Cl)c1 | 0.416 | 5.1 | 0.0553 | 11.7 | 0.617 | 20.9 | 13.6 | 29.1 | 0.177 | 10.8 | 0.283 | 13.2 | 13.8 | 27.5 | 11.8 | 25.6 | 0.0332 | 0.199 | 0.0904 | 0.308 |
| NS(=O)(=O)c1ccc(N=Nc2c(O)[nH]c3ccc(C(=O)NCc4ccncc4)cc23)cc1 | > 25 | > 25 | > 25 | > 25 | > 25 | > 25 | > 25 | > 25 | > 25 | > 25 | > 25 | > 25 | > 25 | > 25 | > 25 | > 25 | > 25 | > 25 | > 25 | > 25 |
| COc1ccc(NC(=O)/C=C(C)/C=C/C=C(C)/C=C/C2=C(C)CCCC2(C)C)cc1 | 3.28 | 14.4 | 2.43 | 6.99 | 2.41 | 7.23 | 4.25 | 15.1 | 12.8 | 26.9 | 13.3 | 27.2 | 4.13 | 14.1 | 11.2 | 23.9 | 37.5 | 58.2 | 12.3 | 26.7 |
| CCCn1cnc2c(SCC(=O)O)nc(N)nc21 | – | > 100 | – | > 100 | – | > 100 | – | > 100 | – | > 100 | – | > 100 | – | > 100 | – | > 100 | – | > 100 | – | > 100 |
| [O-][N+]1(CC[N+]2([O-])CCCCC2)CCCCC1 | – | > 100 | – | > 100 | – | > 100 | – | > 100 | – | > 100 | – | > 100 | – | > 100 | – | > 100 | – | > 100 | – | – |
